Results: ChEMBL document CHEMBL6103617, “Chromene Dimers from Cultures of Basidiomycete Panus similis” (J Nat Prod, 2025)

How the values were obtained:
[1] = Cytotoxicity against African green monkey Vero cells by green fluorescent protein-based assay; assay type: toxicity, cell-based; details: African green monkey (Chlorocebus sabaeus)
NCI-H187 = experiment: Cytotoxicity against human NCI-H187 cells by resazurin staining based analysis; assay type: functional, cell-based
[2] = Antioxidant activity assessed as DPPH radical scavenging activity incubated for 30 min by DPPH assay; assay type: functional
MCF7 = experiment: Cytotoxicity against human MCF7 cells by resazurin staining based analysis; assay type: functional, cell-based

| IC50 [2] [µM] | SMILES | IC50 [1] [µM] | IC50 (NCI-H187) [µM] | IC50 (MCF7) [µM] |
| --- | --- | --- | --- | --- |
| > 1800 | COc1ccc2c(c1)C(O)C(O)C(C)(C)O2 (stereo not given) | 220 | > 230 | > 220 |
| 370 | CC1(C)C=Cc2cc3c(cc2O1)O[C@@H]1c2cc(O)c(O)cc2OC(C)(C)[C@@H]1O3 (racemic) | 46 | 45 | 66 |
| 180 | COc1cc2c(cc1O)OC(C)(C)C(O)C2 (racemic) | > 220 | 55 | > 220 |
| 540 | COc1cc2c(cc1O)OC(C)(C)[C@H]1[C@H]3[C@@H](O[C@@H]21)c1cc(OC)c(O)cc1OC3(C)C (racemic) | > 120 | > 120 | > 120 |
| 66 | CC1(C)Oc2cc(O)c(O)cc2[C@@H]2O[C@H]3c4cc(O)c(O)cc4OC(C)(C)[C@H]3[C@@H]21 (racemic) | > 130 | 48 | > 130 |

The remaining lines, values behind:

| SMILES | IC50 [2] [µM] | IC50 [1] [µM] | IC50 (NCI-H187) [µM] | IC50 (MCF7) [µM] |
| --- | --- | --- | --- | --- |
| CC1(C)Oc2ccc(O)cc2C(O)C1O (stereo not given) | > 1900 | > 240 | 9.1 | > 240 |
| O=C1O[C@H]([C@@H](O)CO)C(O)=C1O [ASCORBIC ACID] | 68 | – | – | – |
| COc1cccc2c1C(=O)c1c(O)c3c(c(O)c1C2=O)C[C@@](O)(C(=O)CO)C[C@@H]3O[C@H]1C[C@H](N)[C@H](O)[C@H](C)O1 [DOXORUBICIN] | – | – | 0.084 | 12 |
| Cc1c2ccncc2c(C)c2c1[nH]c1ccccc12 [ELLIPTECINE] | – | > 5.4 | 7.8 | – |
| CC/C(=C(\c1ccccc1)c1ccc(OCCN(C)C)cc1)c1ccccc1 [TAMOXIFEN] | – | – | – | 23 |
